# From patent USH1142H, “Optically active cyclobutyl pyrimidine” (priority 1990, dated 1993)
# Experiments:
# [1] = test system: HSV-1 (herpes simplex virus type 1, strain Schooler); test: HSV-1 antiviral assay (plaque reduction in WI-38 cell culture monolayers); assay type: cell-based; conditions: Human alphaherpesvirus 1, 96 h; HSV-1 strain Schooler; WI-38 monolayers; 4 days incubation at 37° C.; at least a 50% plaque reduction compared to virus controls; read-out: ID50 (the source's name)
# Procedure: (§1) Assays were performed in cell culture systems to determine the concentrations of compounds that are effective in […] several kinds of viral infections. The assays are described below, and the results are presented in Table 1. |HSV-1 (herpes simplex virus type 1, strain Schooler), VZV |Cell Culture Assays: |HSV-1 and VZV antiviral assays: Virus was adsorbed to |WI-38 cell culture monolayers in 6 well culture plates (Costar, |Cambridge, MA) for 1 hour prior to addition of maintenance |medium containing duplicate dilutions of the test compound. |Inhibition of plaque development was evaluated on fixed and |stained monolayers after 4 days incubation at 37° C. for HSV-1 |and after 6-7 days incubation at 37° C. for VZV. ID50 values |were determined from the drug concentration which conferred at |least a 50% plaque reduction compared to virus controls.
# [2] = test system: VZV (varicella zoster virus, strain ELLEN); test: VZV antiviral assay (plaque reduction in WI-38 cell culture monolayers); assay type: cell-based; conditions: Human alphaherpesvirus 3, WI-38 monolayers, 6-7 days incubation at 37° C., at least a 50% plaque reduction compared to virus controls, read-out: ID50 (the source's name)
# Procedure: as §1, with “Schooler), VZV |(varicella zoster virus, strain ELLEN). |Cell Culture” for “Schooler), VZV |Cell Culture”
smiles,measurement,setting,value
"O=c1[nH]c(=O)n([C@@H]2C[C@H](CO)[C@H]2CO)cc1/C=C/Br [Compound 1, [1R-(1α(E),2β,3α)]-1-[2,3-bis(hydroxymethyl)cyclobutyl]-5-(2-bromoethenyl)-2,4(1H,3H)-pyrimidinedione]",IC50,[1],300 nM
same,IC50,[2],60 to 150 nM
